Reference: publication PMC8371461 (Frontiers in Pharmacology, 2021)

What was measured:
TESK1 = biological target: T1, TESK1 (Homo sapiens, UniProt Q15569); assay: kinome scan; assay type: binding; conditions: 10 µM
T1 construct: purchased DiscoverX (KINOMEscan)

PKN1 = biological target: T2, PKN1 (Homo sapiens, UniProt Q16512); assay: kinome scan; assay type: binding; conditions: 10 µM
T2 construct: purchased DiscoverX (KINOMEscan)

ULK1 = biological target: T3, ULK1 (Homo sapiens, UniProt O75385); assay: kinome scan; assay type: binding; conditions: 10 µM
T3 construct: purchased DiscoverX (KINOMEscan)
T3 sequence (O75385 whole entry): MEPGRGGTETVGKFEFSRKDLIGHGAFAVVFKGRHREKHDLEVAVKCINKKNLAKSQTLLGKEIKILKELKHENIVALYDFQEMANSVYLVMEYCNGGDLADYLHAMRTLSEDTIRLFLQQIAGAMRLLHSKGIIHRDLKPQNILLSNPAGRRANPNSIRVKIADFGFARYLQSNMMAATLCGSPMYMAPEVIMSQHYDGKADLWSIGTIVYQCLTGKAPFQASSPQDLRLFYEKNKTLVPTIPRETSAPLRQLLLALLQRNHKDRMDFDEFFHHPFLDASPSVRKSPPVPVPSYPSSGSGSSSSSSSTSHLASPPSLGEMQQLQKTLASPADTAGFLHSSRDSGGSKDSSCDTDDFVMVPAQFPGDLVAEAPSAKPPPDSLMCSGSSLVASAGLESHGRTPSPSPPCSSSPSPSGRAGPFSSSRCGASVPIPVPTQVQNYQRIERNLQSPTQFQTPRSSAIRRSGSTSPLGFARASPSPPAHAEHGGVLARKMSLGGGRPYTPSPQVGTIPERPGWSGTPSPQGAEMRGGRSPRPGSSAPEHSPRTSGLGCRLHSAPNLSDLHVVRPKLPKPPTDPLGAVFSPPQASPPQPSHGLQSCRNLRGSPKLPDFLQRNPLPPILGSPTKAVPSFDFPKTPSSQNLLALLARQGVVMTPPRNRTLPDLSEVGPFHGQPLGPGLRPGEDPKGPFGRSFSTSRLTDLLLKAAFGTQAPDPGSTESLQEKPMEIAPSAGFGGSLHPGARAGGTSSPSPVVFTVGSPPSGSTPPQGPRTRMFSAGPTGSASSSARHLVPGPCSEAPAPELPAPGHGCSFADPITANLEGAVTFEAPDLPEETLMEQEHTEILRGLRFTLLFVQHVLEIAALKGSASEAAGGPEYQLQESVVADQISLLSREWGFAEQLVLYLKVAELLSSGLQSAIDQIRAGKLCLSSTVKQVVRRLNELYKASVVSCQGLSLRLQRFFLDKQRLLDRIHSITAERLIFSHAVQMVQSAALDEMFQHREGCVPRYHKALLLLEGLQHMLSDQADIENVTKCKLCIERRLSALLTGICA

SLK = biological target: T4, SLK (Homo sapiens, UniProt Q9H2G2); assay: kinome scan; assay type: binding; conditions: 10 µM
T4 construct: purchased DiscoverX (KINOMEscan)

GRK1 = biological target: T5, GRK1 (Homo sapiens, UniProt Q15835); assay: kinome scan; assay type: binding; conditions: 10 µM
T5 construct: purchased DiscoverX (KINOMEscan)

MAP4K3 = biological target: T6, MAP4K3 (Homo sapiens, UniProt Q8IVH8); assay: kinome scan; assay type: binding; conditions: 10 µM
T6 construct: purchased DiscoverX (KINOMEscan)

RET = biological target: T7, RET (Homo sapiens, UniProt P07949); assay: kinome scan; assay type: binding; conditions: 10 µM
T7 construct: purchased DiscoverX (KINOMEscan)

SgK110 = biological target: T8, SgK110 (Homo sapiens, UniProt P0C264); assay: kinome scan; assay type: binding; conditions: 10 µM
T8 construct: purchased DiscoverX (KINOMEscan)

YES = biological target: T9, YES (Homo sapiens, UniProt P07947); assay: kinome scan; assay type: binding; conditions: 10 µM
T9 construct: purchased DiscoverX (KINOMEscan)

MAK = biological target: T10, MAK (Homo sapiens, UniProt P20794); assay: kinome scan; assay type: binding; conditions: 10 µM
T10 construct: purchased DiscoverX (KINOMEscan)

PIK4CB = biological target: T11, PIK4CB (Homo sapiens, UniProt Q9UBF8); assay: kinome scan; assay type: binding
T11 construct: purchased DiscoverX (KINOMEscan)
T11 sequence (Q9UBF8 whole entry): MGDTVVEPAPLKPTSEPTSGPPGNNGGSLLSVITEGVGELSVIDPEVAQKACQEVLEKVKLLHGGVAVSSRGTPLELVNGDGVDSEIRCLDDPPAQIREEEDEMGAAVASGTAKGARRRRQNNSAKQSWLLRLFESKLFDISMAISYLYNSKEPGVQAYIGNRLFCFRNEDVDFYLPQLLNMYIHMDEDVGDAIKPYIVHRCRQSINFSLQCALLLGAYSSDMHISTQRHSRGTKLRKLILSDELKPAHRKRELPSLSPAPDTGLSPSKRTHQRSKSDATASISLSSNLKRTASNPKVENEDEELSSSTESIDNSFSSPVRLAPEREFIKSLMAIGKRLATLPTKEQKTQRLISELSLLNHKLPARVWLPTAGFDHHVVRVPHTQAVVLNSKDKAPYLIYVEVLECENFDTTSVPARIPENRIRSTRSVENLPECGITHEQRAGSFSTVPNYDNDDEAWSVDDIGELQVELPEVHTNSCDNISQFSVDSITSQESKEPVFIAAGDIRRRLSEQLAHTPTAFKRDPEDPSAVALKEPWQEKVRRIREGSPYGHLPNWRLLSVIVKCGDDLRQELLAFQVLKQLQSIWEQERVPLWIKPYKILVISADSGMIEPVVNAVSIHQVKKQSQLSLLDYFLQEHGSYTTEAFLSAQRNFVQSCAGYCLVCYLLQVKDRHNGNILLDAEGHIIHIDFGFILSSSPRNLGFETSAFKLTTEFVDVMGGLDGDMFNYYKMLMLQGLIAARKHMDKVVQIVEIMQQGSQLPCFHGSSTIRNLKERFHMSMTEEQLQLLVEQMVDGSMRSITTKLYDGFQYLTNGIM

NEK1 = biological target: T12, NEK1 (Homo sapiens, UniProt Q96PY6); assay: kinome scan; assay type: binding; conditions: 10 µM
T12 construct: purchased DiscoverX (KINOMEscan)

STK39 = biological target: T13, STK39 (Homo sapiens, UniProt Q9UEW8); assay: kinome scan; assay type: binding; conditions: 10 µM
T13 construct: purchased DiscoverX (KINOMEscan)

p38-delta = biological target: T14, p38-delta (Homo sapiens, UniProt O15264); assay: kinome scan; assay type: binding; conditions: 10 µM
T14 construct: purchased DiscoverX (KINOMEscan)
T14 sequence (O15264 whole entry): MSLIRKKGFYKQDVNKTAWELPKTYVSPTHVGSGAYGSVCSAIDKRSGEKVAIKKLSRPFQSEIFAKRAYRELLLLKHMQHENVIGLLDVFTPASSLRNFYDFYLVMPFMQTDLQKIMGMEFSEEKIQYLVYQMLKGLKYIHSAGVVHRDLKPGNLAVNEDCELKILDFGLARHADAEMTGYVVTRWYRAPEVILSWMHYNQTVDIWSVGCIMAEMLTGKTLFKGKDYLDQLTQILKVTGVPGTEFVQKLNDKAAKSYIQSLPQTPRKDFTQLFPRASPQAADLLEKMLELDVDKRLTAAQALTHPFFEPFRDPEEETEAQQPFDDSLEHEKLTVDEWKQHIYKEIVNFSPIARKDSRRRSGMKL

PAK3 = biological target: T15, PAK3 (Homo sapiens, UniProt O75914); assay: kinome scan; assay type: binding; conditions: 10 µM
T15 construct: purchased DiscoverX (KINOMEscan)

TNNI3K = biological target: T16, TNNI3K (Homo sapiens, UniProt Q59H18); assay: kinome scan; assay type: binding; conditions: 10 µM
T16 construct: purchased DiscoverX (KINOMEscan)

RIPK1 = biological target: T17, RIPK1 (Homo sapiens, UniProt Q13546); assay: kinome scan; assay type: binding; conditions: 10 µM
T17 construct: purchased DiscoverX (KINOMEscan)

CDKL2 = biological target: T18, CDKL2 (Homo sapiens, UniProt Q92772); assay: kinome scan; assay type: binding; conditions: 10 µM
T18 construct: purchased DiscoverX (KINOMEscan)
T18 sequence (Q92772 whole entry): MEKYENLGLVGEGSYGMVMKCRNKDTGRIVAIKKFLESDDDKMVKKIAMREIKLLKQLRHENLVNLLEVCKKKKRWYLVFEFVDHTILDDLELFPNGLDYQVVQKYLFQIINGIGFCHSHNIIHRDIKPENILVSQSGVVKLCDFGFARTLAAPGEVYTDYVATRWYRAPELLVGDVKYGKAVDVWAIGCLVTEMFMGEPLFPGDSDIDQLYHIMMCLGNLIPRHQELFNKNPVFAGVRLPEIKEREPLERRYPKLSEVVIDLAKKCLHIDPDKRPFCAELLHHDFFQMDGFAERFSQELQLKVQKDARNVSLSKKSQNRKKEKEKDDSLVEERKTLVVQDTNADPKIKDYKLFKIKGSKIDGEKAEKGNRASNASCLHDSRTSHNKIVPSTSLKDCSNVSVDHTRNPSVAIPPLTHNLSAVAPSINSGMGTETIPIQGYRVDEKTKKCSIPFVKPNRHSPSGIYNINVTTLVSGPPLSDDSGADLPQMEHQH

[1] = biological target: T19, RPS6KA4(Kin.Dom.1-N-terminal) (Homo sapiens, UniProt O75676); assay: kinome scan; assay type: binding; conditions: 10 µM
T19 construct: RPS6KA4(Kin.Dom.1-N-terminal); purchased DiscoverX (KINOMEscan)

CSK = biological target: T20, CSK (Homo sapiens, UniProt P41240); assay: kinome scan; assay type: binding; conditions: 10 µM
T20 construct: purchased DiscoverX (KINOMEscan)

PRKCI = biological target: T21, PRKCI (Homo sapiens, UniProt P41743); assay: kinome scan; assay type: binding; conditions: 10 µM
T21 construct: purchased DiscoverX (KINOMEscan)
T21 sequence (P41743 whole entry): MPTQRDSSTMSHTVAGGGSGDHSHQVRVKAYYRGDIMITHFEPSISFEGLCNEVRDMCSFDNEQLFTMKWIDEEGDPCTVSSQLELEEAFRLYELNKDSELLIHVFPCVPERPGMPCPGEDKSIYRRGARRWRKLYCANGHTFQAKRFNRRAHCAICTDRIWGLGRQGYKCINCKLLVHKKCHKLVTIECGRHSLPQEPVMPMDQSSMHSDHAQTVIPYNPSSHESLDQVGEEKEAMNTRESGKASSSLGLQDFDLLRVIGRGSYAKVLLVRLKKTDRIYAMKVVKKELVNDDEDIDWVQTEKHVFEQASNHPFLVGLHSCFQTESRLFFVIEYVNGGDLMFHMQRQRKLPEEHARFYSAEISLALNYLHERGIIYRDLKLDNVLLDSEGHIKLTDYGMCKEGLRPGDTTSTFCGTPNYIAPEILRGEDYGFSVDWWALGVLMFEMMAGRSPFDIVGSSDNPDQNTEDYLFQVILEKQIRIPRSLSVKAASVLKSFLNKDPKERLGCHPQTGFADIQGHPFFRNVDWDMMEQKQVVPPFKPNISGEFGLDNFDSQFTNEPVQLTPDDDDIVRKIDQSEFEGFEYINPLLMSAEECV

CDK3 = biological target: T22, CDK3 (Homo sapiens, UniProt Q00526); assay: kinome scan; assay type: binding; conditions: 10 µM
T22 construct: purchased DiscoverX (KINOMEscan)
T22 sequence (Q00526 whole entry): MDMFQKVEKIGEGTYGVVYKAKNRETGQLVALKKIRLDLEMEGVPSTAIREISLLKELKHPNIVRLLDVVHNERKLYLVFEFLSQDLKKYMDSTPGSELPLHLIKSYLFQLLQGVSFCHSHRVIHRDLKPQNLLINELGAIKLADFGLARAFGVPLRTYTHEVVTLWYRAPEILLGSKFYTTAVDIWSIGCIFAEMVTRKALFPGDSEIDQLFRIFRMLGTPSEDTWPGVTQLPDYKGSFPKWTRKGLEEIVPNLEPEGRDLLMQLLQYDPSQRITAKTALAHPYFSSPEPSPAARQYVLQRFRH

EGFR(L858R) = biological target: T23, EGFR(L858R) (Homo sapiens, UniProt P00533, L858R); assay: kinome scan; assay type: binding; conditions: 10 µM
T23 construct: purchased DiscoverX (KINOMEscan)

FGFR1 = biological target: T24, FGFR1 (Homo sapiens, UniProt P11362); assay: kinome scan; assay type: binding; conditions: 10 µM
T24 construct: purchased DiscoverX (KINOMEscan)

CDK4-cyclinD3 = biological target: T25, CDK4-cyclinD3 (Homo sapiens, UniProt P11802); assay: kinome scan; assay type: binding; conditions: 10 µM
T25 construct: purchased DiscoverX (KINOMEscan)

[2] = tested on: CGR8EF1αS,RLuc-Tα1,FLuc cells; assay: neural differentiation, Dual Luciferase Reporter Assay (FLuc/RLuc); assay type: cell-based, mouse; conditions: 72 h, normalized to DMSO
Procedure: The CGR8 mouse PSC were cultured as described ([Suter et al., 2009]). For neural induction, CGR8 cells were plated in 96-well plates at a density of 10,000 cells/cm^2 on gelatine-coated cell culture plates, in differentiation medium [BHK-21 medium supplemented with 20% foetal calf serum (Thermofisher), L-glutamine 2 mM (Thermofisher), non-essential amino acids (1X, Thermofisher), sodium pyruvate 1 mM (Thermofisher), penicillin/streptomycin 50 U/ml (Thermofisher)]. CGR8EF1αS,RLuc-Tα1,FLuc cells were described in ([Suter et al., 2009]) and were cultured as described above. Luminescence assays were directly performed in 96-well plates with the Dual Luciferase Reporter Assay System (Promega) according to the manufacturer’s instructions. Luminescence was measured with the SpectraMax L Microplate luminometer (Molecular Devices). Cell viability in the wells was measured by the addition of propidium iodide 1 µg/ml in 100 µL of PBS and fluorescence was assessed in each well using a FluoStar Optima reader (Pharmaceutical Technology Group at the University of Geneva).
The CGR8 PSC line was stably transduced with a dual promoter/reporter gene construct containing a ubiquitous promoter (EF1αS) controlling the expression of Renilla Luciferase (RLuc) and also an early neural-specific promoter (Tα1), controlling the expression of Firefly Luciferase (FLuc). […]

[3] = biological target: T26, TYK2(JH1domain-catalytic) (Homo sapiens, UniProt P29597); assay: kinome scan; assay type: binding; conditions: 10 µM
T26 construct: TYK2(JH1domain-catalytic); purchased DiscoverX (KINOMEscan)

MAP3K4 = biological target: T27, MAP3K4 (Homo sapiens, UniProt Q9Y6R4); assay: kinome scan; assay type: binding; conditions: 10 µM
T27 construct: purchased DiscoverX (KINOMEscan)

[4] = tested on: Cytochrome P450 3A4 isoform 1; parameters: method as in PubChem Bioassay ID 884; conditions: reported activity, data mining; ref PubChem Bioassay ID 884; cited from earlier work
MLCK = biological target: T28, MLCK (Homo sapiens, UniProt Q32MK0); assay: kinome scan; assay type: binding; conditions: 10 µM
T28 construct: purchased DiscoverX (KINOMEscan)

[5] = biological target: T29, RSK1(Kin.Dom.1-N-terminal) (Homo sapiens, UniProt Q15418); assay: kinome scan; assay type: binding; conditions: 10 µM
T29 construct: RSK1(Kin.Dom.1-N-terminal); purchased DiscoverX (KINOMEscan)

AKT3 = biological target: T30, AKT3 (Homo sapiens, UniProt Q9Y243); assay: kinome scan; assay type: binding; conditions: 10 µM
T30 construct: purchased DiscoverX (KINOMEscan)
T30 sequence (Q9Y243 whole entry): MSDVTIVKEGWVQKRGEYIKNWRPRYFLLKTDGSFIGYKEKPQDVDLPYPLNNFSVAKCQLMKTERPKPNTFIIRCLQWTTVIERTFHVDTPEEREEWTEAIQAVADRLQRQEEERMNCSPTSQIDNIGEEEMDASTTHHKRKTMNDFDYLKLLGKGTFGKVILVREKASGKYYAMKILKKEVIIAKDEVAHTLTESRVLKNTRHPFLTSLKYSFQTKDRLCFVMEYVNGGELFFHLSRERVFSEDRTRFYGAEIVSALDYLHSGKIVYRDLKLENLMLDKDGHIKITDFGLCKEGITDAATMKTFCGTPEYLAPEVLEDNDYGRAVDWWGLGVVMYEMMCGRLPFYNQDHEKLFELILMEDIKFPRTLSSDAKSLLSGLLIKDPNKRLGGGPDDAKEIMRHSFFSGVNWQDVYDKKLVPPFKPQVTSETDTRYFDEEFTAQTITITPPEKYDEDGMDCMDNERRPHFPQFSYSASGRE

MAP4K5 = biological target: T31, MAP4K5 (Homo sapiens, UniProt Q9Y4K4); assay: kinome scan; assay type: binding; conditions: 10 µM
T31 construct: purchased DiscoverX (KINOMEscan)

Cruzain = tested on: Cruzain; parameters: method as in CHEMBL1613769; conditions: reported activity, data mining; ref CHEMBL1613769; cited from earlier work
LKB1 = biological target: T32, LKB1 (Homo sapiens, UniProt Q15831); assay: kinome scan; assay type: binding; conditions: 10 µM
T32 construct: purchased DiscoverX (KINOMEscan)

[6] = tested on: Euchromatic histone-lysine N-methyltransferase 2; parameters: method as in PubChem Bioassay ID 504,332; conditions: reported activity, data mining; ref PubChem Bioassay ID 504,332; cited from earlier work
IGF1R = biological target: T33, IGF1R (Homo sapiens, UniProt P08069); assay: kinome scan; assay type: binding; conditions: 10 µM
T33 construct: purchased DiscoverX (KINOMEscan)

TAK1 = biological target: T34, TAK1 (Homo sapiens, UniProt O43318); assay: kinome scan; assay type: binding; conditions: 10 µM
T34 construct: purchased DiscoverX (KINOMEscan)

KIT(D816V) = biological target: T35, KIT(D816V) (Homo sapiens, UniProt P10721, D816V); assay: kinome scan; assay type: binding; conditions: 10 µM
T35 construct: purchased DiscoverX (KINOMEscan)

CDK2 = biological target: T36, CDK2 (Homo sapiens, UniProt P24941); assay: kinome scan; assay type: binding; conditions: 10 µM
T36 construct: purchased DiscoverX (KINOMEscan)

T2 sequence (Q16512 whole entry): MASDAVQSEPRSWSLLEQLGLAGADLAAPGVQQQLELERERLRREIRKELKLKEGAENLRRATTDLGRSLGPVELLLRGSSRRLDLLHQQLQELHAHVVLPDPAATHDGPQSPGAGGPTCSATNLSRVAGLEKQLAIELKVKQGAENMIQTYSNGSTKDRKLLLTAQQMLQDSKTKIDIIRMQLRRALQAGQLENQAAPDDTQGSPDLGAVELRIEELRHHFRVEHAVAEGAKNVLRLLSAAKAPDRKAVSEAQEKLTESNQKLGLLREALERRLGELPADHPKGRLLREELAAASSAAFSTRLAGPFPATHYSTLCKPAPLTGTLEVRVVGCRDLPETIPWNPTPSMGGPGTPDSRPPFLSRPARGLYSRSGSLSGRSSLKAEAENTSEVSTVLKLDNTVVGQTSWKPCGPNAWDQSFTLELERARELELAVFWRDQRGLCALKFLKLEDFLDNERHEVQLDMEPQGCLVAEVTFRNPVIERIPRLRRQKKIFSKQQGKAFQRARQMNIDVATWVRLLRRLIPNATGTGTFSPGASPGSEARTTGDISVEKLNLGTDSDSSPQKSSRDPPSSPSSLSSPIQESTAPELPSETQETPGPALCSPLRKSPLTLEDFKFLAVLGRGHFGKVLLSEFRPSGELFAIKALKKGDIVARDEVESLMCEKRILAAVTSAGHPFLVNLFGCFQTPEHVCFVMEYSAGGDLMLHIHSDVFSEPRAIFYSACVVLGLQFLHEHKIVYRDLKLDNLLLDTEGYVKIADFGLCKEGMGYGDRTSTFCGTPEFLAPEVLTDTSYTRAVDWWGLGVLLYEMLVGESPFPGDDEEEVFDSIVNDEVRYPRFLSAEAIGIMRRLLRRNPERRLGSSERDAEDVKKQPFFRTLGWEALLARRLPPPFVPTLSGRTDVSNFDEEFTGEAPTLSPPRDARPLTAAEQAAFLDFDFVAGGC

Nc1ccc(N=Nc2ccccc2)c(N)n1 [phenazopyridine, 2,6-diamino-3-(phenylazo)pyridine]
kinase inhibition (TESK1): 100
kinase inhibition (PKN1): 100
kinase inhibition (ULK1): 100
kinase inhibition (SLK): 100
remaining binding (% of control) (GRK1): 100
kinase inhibition (MAP4K3): 74
kinase inhibition (RET): 100
kinase inhibition (SgK110): 100
kinase inhibition (YES): 100
kinase inhibition (MAK): 100
remaining kinase binding (% of control) (PIK4CB; 10 µM): 4.6
remaining binding at 10 µM (PIK4CB; read-out: % Of control): 4.6%
kinase inhibition (NEK1): 100
kinase inhibition (STK39): 100
kinase inhibition (p38-delta): 89
kinase inhibition (PAK3): 99
kinase inhibition (TNNI3K): 100
remaining binding (% of control) (RIPK1): 100
kinase inhibition (CDKL2): 85
kinase inhibition [1]: 89
kinase inhibition (CSK): 100
kinase inhibition (PRKCI): 100
kinase inhibition (CDK3): 100
kinase inhibition (EGFR(L858R)): 100
kinase inhibition (FGFR1): 100
kinase inhibition (CDK4-cyclinD3): 100
concentration at which an increase of the FLuc signal was observed [2]: 1 µM
concentration of maximal FLuc signal [2]: 10 µM
remaining binding (% of control) [3]: 100
kinase inhibition (MAP3K4): 100
Concentration [4]: 100 nM
kinase inhibition (MLCK): 96
kinase inhibition [5]: 80
kinase inhibition (AKT3): 92
kinase inhibition (MAP4K5): 100
Concentration (Cruzain): 20 µM
kinase inhibition (LKB1): 88
Concentration [6]: 10 µM
kinase inhibition (IGF1R): 100
kinase inhibition (TAK1): 80
kinase inhibition (KIT(D816V)): 100
kinase inhibition (CDK2): 82
